Several values for one entry are separate records, joined by “and”; a condition that tells them apart may be missing. Equal entries are not always repeated.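 Five concentrations, 48 hours, 96-well plates. The concentration for 50% growth inhibition is given as GI50. TGI is the concentration that stops growth completely.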
Columns and labels:
Test in all cases: NCI tumour cell line growth inhibition, 48 h
MDA-MB-435 = test system: MDA-MB-435
OVCAR-5 ovarian = test system: OVCAR-5 ovarian
NCI-H226 lung = test system: NCI-H226 lung
SK-MEL-5 melanoma = test system: SK-MEL-5 melanoma
RPMI-8226 leukemia = test system: RPMI-8226 leukemia
NCI-H460 lung = test system: NCI-H460 lung
A498 renal = test system: A498 renal
786-0 renal = test system: 786-0 renal
UACC-257 melanoma = test system: UACC-257 melanoma
MDA-MB-231 breast = test system: MDA-MB-231 breast
EKVX NSCLC = test system: EKVX NSCLC

SMILES | TGI (MDA-MB-435) | TGI (OVCAR-5 ovarian) | TGI (NCI-H226 lung) | TGI (SK-MEL-5 melanoma) | TGI (RPMI-8226 leukemia) | TGI (NCI-H460 lung) | TGI (A498 renal) | TGI (786-0 renal) | TGI (UACC-257 melanoma) | TGI (MDA-MB-231 breast) | TGI (EKVX NSCLC) | GI50 (OVCAR-5 ovarian) | GI50 (NCI-H226 lung) | GI50 (SK-MEL-5 melanoma) | GI50 (RPMI-8226 leukemia) | GI50 (A498 renal) | GI50 (UACC-257 melanoma) | GI50 (MDA-MB-231 breast)
CCOC(=O)n1cncc1CC(NC(=O)Cc1c(C(=O)C=C(C)C)[nH]c2ccccc12)C(=O)OC (configuration not stated) | 37.1 µM | 35 µM | 41.3 µM | 37.5 µM | > 100 µM | 58 µM | 41.1 µM | 55.5 µM | 28.2 µM | 36.1 µM | 33.9 µM | – | – | – | – | – | – | –
CC(C)CC1c2[nH]c3ccccc3c2C[C@H]2C(=O)NC(CCC(=O)OC(C)(C)C)C(=O)N12 (some centres not stated) | 97.4 µM | > 100 µM | > 100 µM | 61.7 µM | 67.2 µM | – | > 100 µM | > 100 µM | 66 µM | 79.1 µM | > 100 µM | – | – | – | – | – | – | –
CC(C)/C=N\n1c(N)c(C#N)c(C#N)c1C(C)C | 95.1 µM | > 100 µM | 64.6 µM | 34.1 µM | 75.2 µM | – | 69.5 µM | > 100 µM | 50.3 µM | > 100 µM | 72.8 µM | – | – | – | – | – | – | –
C[Si](C)(C)OC1c2[nH]c3ccccc3c2CN2C(=O)CCC12 (configuration not stated) | > 100 µM | > 100 µM | > 100 µM | > 100 µM | > 100 µM | > 100 µM | > 100 µM | > 100 µM | > 100 µM | > 100 µM | > 100 µM | – | – | – | – | – | – | –
C[C@]12CC(c3ccccc3O1)C(C(=O)NC13CC4CC(CC(C4)C1)C3)C(=O)N2 (some centres not stated) | 65.1 µM | 52.7 µM | 71.3 µM | 33.3 µM | 31.3 µM | > 100 µM | > 100 µM | 40.8 µM | > 100 µM | > 100 µM | 19.3 µM | – | – | – | – | – | – | –
Cn1c2nc3ccccc3c-2cc2ccccc21 | > 46.4 µM and 19 µM | 36.9 µM and 40.9 µM | 19.3 µM and 31.5 µM | 16.8 µM and 24 µM | 10.2 µM and 39 µM | 11.9 µM and 12.9 µM | 17.1 µM and 43.5 µM | > 100 µM | 35.5 µM and 44 µM | > 60.7 µM and 33.1 µM | 15.6 µM and 33.9 µM | 4.12 µM and 11.4 µM | 3.46 µM and 11.2 µM | 4 µM and 8.37 µM | 2.45 µM and 7.55 µM | 5.12 µM and 18.4 µM | 3.91 µM and 8.6 µM | 5.58 µM and 11.6 µM
N=C1C(=N)c2ccccc2-c2ccccc21 | 0.4 µM | 3.43 µM | 3.57 µM | 1.53 µM | > 100 µM | 2.88 µM | 4.13 µM | 4.46 µM | 1.46 µM | 1.16 µM | 3.62 µM | – | – | – | 1.75 µM | – | – | –
CC1C[C@]2(C)C(=S)Nc3ccccc3[C@@H]2Nc2ccccc21 (some centres not stated) | 31.2 µM | 43.5 µM | 36.6 µM | 31.7 µM | > 100 µM | 29.6 µM | 36.3 µM | 34.1 µM | 32.5 µM | 26.3 µM | 57.5 µM | – | – | – | – | – | – | –
COc1ccc(OC)c2nc3c(C(=O)NCCN(C)C)cccc3nc12 | 17.5 µM | > 78.2 µM | 27.5 µM | 14.1 µM | > 24.2 µM | 21.5 µM | 29.4 µM | > 76.3 µM | 15.3 µM | 19.3 µM | 22.9 µM | – | – | – | – | – | – | –
Cc1ccc(S(=O)(=O)NNC(=S)Nc2cccc3ccccc23)cc1 | > 100 µM | > 100 µM | 95.2 µM | 33.1 µM | > 100 µM | > 100 µM | 99.5 µM | > 100 µM | 52.1 µM | > 100 µM | > 100 µM | – | – | – | – | – | – | –
CNC(=O)c1n[nH][nH]c1=O | > 100 µM | > 100 µM | > 100 µM | > 100 µM | > 100 µM | – | > 100 µM | > 100 µM | > 100 µM | > 100 µM | > 100 µM | – | – | – | – | – | – | –
NC1=NC(OCC2(CO)CCC2)C=C(NCC2(CO)CCC2)N1 (configuration not stated) | > 100 µM | > 100 µM | > 100 µM | > 100 µM | > 100 µM | > 100 µM | > 100 µM | > 100 µM | > 100 µM | > 100 µM | > 100 µM | – | – | – | – | – | – | –
CN(C)CCO/N=C1/C=C2CC[C@H]3[C@@H]4CC[C@H](O)[C@@]4(C)CC[C@@H]3[C@@]2(C)CC1 | 12.4 µM | > 100 µM | 8.87 µM | 34.3 µM | > 74.9 µM | 21.9 µM | 33.7 µM | 27.9 µM | 30.2 µM | 44.4 µM | 68.6 µM | – | – | – | – | – | – | –
O=C1/C(=C\c2cccc(Oc3ccccc3)c2)SC(c2ccccc2)N1c1ccc(Cl)cc1 (configuration not stated) | > 64.3 µM | > 100 µM | > 100 µM | > 41.7 µM | 41.9 µM | > 100 µM | > 100 µM | > 100 µM | > 100 µM | > 100 µM | > 100 µM | – | – | – | – | – | – | –
CCOC(=O)c1nc2ccc(C(F)(F)F)cc2nc1Oc1ccc(F)cc1 | > 100 µM | – | > 100 µM | > 100 µM | > 100 µM | > 100 µM | > 100 µM | > 100 µM | > 100 µM | > 100 µM | > 100 µM | – | – | – | – | – | – | –
CC(=O)CCC[C@@H](C)[C@@H]1O[C@H]([C@@]2(C)CCC(=O)O2)C[C@H]2C(CSc3ccccc3)C(=O)O[C@@H]12 (some centres not stated) | 45.6 µM | 32.4 µM | 37.5 µM | > 54.3 µM | 52.1 µM | > 57.5 µM | > 88.9 µM | 42.2 µM | 28.1 µM | 37.3 µM | 24.3 µM | – | – | – | – | – | – | –
CC(=O)O[C@H]1C(=O)[C@@]2(C)[C@H]([C@H](OC(=O)C3CCCCC3)[C@]3(O)C[C@H](OC(=O)[C@H](O)[C@@H](NC(=O)C4CCCCC4)C4CCCCC4)C(C)=C1C3(C)C)[C@]1(OC(C)=O)CO[C@@H]1C[C@@H]2O | 0.0105 µM | 0.121 µM | 3.88 µM | 1.12 µM | 3.67 µM | 3.87 µM | 6.6 µM | 6.97 µM | 4.24 µM | 0.476 µM | 25 µM | – | – | – | – | – | – | –
Cc1sc2nc3n(c(=O)c2c1C)N=C(c1ccc(Cl)cc1)CS3 | > 100 µM | > 100 µM | > 100 µM | > 100 µM | > 100 µM | > 100 µM | > 100 µM | > 100 µM | > 100 µM | > 100 µM | > 100 µM | – | – | – | – | – | – | –
